Here are results for one molecule from ChEMBL document CHEMBL4138296, “Nonacidic Chemotype Possessing N-Acylated Piperidine Moiety as Potent Farnesoid X Receptor (FXR) Antagonists” (ACS Med Chem Lett, 2018).

The source made the active and inactive calls. The calls are words filed in the database; no cut-off is given here.

The target of one series is T1, Bile acid receptor (Homo sapiens, UniProt Q96RI1).
T1 sequence (Q96RI1 whole entry): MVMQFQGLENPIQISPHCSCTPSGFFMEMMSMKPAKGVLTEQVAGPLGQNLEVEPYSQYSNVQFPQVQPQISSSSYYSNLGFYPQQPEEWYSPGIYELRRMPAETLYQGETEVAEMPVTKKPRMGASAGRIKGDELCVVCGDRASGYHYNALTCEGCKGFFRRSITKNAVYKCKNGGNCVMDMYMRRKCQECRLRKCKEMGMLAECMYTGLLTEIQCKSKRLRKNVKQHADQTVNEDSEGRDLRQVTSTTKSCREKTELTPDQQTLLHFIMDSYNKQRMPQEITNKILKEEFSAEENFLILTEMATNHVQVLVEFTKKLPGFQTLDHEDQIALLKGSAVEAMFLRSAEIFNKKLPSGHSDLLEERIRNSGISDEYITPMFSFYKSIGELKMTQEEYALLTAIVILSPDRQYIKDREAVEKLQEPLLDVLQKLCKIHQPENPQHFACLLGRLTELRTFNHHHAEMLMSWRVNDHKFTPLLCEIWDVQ
Put plainly: Antagonist activity at GST-tagged FXR LBD (unknown origin) assessed as inhibition of GW4064-induced fluorecein-labeled SRC2-2 coactivator recruitment by Lanthascreen TR-FRET assay. On the technique in general: Time-resolved FRET reads energy transfer from a long-lived donor to a nearby acceptor.

For series [1], the target named is T2, Vitamin D3 receptor (Homo sapiens) (UniProt P11473).
T2 sequence (whole entry): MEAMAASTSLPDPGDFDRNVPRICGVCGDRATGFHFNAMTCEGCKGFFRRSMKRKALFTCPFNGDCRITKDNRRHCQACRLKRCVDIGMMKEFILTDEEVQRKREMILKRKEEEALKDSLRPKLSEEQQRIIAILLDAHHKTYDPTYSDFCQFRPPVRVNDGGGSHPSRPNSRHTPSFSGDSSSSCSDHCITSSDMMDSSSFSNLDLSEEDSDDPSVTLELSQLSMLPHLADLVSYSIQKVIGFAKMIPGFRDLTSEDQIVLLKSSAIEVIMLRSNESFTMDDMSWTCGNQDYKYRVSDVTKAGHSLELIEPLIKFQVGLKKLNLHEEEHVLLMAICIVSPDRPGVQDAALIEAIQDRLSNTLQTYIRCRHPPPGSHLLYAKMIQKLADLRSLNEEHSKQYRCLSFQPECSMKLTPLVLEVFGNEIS
As to the kind of experiment: Antagonist activity at human VDR expressed in HEK293T cells assessed as inhibition of 1,25(OH)2VD3-induced response at 1 uM after 24 hrs by luciferase reporter gene assay. It counts as cell-based. On the technique in general: Reporter assays use an easily measured gene product as a stand-in for the process of interest.

Series [2] deals with T3, Peroxisome proliferator-activated receptor gamma (Homo sapiens) (UniProt P37231).
T3 sequence (whole entry): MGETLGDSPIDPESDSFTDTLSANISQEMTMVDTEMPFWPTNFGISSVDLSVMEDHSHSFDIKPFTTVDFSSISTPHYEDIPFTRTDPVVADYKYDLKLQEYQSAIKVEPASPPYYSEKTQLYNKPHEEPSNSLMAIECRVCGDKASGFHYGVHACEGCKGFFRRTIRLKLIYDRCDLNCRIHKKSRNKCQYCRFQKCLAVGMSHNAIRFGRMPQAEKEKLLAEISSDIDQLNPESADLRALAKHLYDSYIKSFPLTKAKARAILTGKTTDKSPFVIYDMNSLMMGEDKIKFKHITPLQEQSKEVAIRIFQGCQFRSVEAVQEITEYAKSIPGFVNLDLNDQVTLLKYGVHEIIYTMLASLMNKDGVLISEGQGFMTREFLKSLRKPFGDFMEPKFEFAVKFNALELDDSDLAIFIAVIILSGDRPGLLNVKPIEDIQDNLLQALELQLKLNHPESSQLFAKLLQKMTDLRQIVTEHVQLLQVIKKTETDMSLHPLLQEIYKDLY
As to the kind of experiment: Antagonist activity at PPARgamma (unknown origin) assessed as inhibition of GW1929-induced response at 1 uM by luciferase reporter gene assay.

The target of series [3] is T2, Vitamin D3 receptor (Homo sapiens). As to the kind of experiment: Agonist activity at human VDR expressed in HEK293T cells at 1 uM by luciferase reporter gene assay. It counts as cell-based.
For series [4], the target named is T4, Retinoic acid receptor RXR-alpha (Homo sapiens) (UniProt P19793).
T4 sequence (whole entry): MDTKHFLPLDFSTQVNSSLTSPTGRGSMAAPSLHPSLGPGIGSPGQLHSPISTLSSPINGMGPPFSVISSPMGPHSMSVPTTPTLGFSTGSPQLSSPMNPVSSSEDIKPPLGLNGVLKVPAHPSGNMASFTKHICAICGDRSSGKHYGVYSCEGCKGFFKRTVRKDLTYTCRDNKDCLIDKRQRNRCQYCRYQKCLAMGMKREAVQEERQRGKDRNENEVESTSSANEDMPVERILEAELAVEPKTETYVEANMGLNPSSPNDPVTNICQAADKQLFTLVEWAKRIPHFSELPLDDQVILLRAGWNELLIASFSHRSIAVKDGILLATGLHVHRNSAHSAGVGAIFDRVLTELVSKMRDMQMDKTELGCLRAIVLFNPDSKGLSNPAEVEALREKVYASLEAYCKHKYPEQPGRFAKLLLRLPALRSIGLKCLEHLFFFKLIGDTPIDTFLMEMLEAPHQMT
As to the kind of experiment: Agonist activity at human RXRalpha expressed in HEK293T cells at 1 uM by luciferase reporter gene assay. The format is cell-based.

The target of series [5] is T3, Peroxisome proliferator-activated receptor gamma (Homo sapiens). Put plainly: Agonist activity at PPARgamma (unknown origin) at 1 uM by luciferase reporter gene assay.
In series [6] the target is T5, G-protein coupled bile acid receptor 1 (Homo sapiens) (UniProt Q8TDU6).
T5 sequence (whole entry): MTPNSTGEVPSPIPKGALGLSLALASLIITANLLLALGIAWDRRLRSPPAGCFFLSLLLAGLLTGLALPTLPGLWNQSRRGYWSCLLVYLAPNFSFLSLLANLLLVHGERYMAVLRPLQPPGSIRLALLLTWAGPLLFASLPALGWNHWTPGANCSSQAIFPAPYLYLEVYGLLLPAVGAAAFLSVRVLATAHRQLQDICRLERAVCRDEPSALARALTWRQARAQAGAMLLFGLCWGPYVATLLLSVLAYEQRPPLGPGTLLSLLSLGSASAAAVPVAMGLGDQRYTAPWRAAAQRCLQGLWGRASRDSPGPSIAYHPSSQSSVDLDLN
Put plainly: Antagonist activity at TGR5 (unknown origin) assessed as inhibition of lithocholic acid-induced response at 1 uM by luciferase reporter gene assay. It counts as functional.

Series [7] relates to 3T3-L1. Put plainly: Cytotoxicity against mouse 3T3L1 cells assessed as reduction in cell viability measured up to 10 uM after 6 days by CCK-8 assay. It counts as cell-based. The following applies: 3t3-l1, 144 h. (In general: Formazan colour is commonly taken as a measure of viable cells.)
In series [8] the test system is 3T3-L1. As to the kind of experiment: Antiadipogenic activity in mouse 3T3L1 cells assessed as reduction in intracellular lipid droplets after 6 days by Oil Red O staining based assay. It counts as functional, cell-based.

Turning to `Cc1ccc2nc([C@H](CC3CCN(C(=O)C(C)C)CC3)N3C(=O)CN(c4ccc(Oc5ccccc5)cc4)C3=O)n(C)c2c1`, on Bile acid receptor, the IC50 – broadly, the concentration needed to halve the response being measured – came out at 35 nM. Further, the inhibition result in series [1], in series [2] and in [6] was “inactive” each time. In addition, the outcome in series [3], in series [4] and in series [5] was inactive. The Activity entry in the series on 3T3-L1 [7] is “Non-Toxic”; in the series with 3T3-L1 [8], “Dose-dependent effect”.
